# Assay results published in patent US20240180898A1, “USE OF AMINOTHIAZOLE DERIVATIVE IN TREATMENT OF IMMUNE INFLAMMATION” (INNAMUNE PHARMACEUTICAL CO. LTD., priority 2021, published 2024).
# Tested on: APP/PS1 transgenic mice
# Experiment: Alzheimer's disease model, APP/PS1 transgenic mice
# Assay type: in vivo, mouse
# Method: Preparation and grouping of Alzheimer's disease mouse models:
# The experiment is divided into three groups, namely:
# Drug group (APP/PS1+INNA1605 group): APP/PSI transgenic mice were given INNA1605 at a dose of 50 mg/Kg/day (twice a day, 25 mg/Kg each time, intraperitoneal injection once, gavage once);
# Model group (APP/PSI group): APP/PSI transgenic mice were given an equal dose of solvent (ddH2O);
# Control group: C57BL/6 mice were given an equal dose of solvent (ddH2O).
# At 9 months of age, Morris water maze test was conducted to evaluate the spatial learning and memory abilities of APP/PSI mice. After the behavioral experiment was completed, pentobarbital sodium (100 mg/kg) was injected into the abdominal cavity for deep anesthesia. After fully exposing the heart and aorta through thoracotomy, a 20 ml syringe was inserted into the aorta with an infusion needle from the apex of the heart. The needle was fixed and the right atrium was cut open. 30 ml of physiological saline at 4° C. was perfused through the aorta until most of the blood flowed out. The hippocampus and cortical tissue were carefully and quickly separated and stored at −80° C.for subsequent biochemical analysis. The remaining mice were first perfused with 30 ml of 4° C. physiological saline, followed by 30 ml of pre-cooled 4% paraformaldehyde. Then, the whole brain was removed and fixed with 4% paraformaldehyde for another 48 hours. After dehydration, transparency, paraffin embedding, and sectioning, immunohistochemical analysis was performed.
# [1] = immunohistochemistry, vs model group
smiles,measurement,setting,value
"O=C(CCN1CCN(Cc2ccccc2)CC1)Nc1nc(-c2ccccc2)cs1 [INNA1605, 3-(4-benzylpiperazine-1-yl)-N-(4-phenylthiazole-2-yl) propionamide]",memory (Morris water maze),"50 mg/Kg/day, 9 months of age",better memory than APP/PS1 transgenic mice treated with only ddH2O
same,"Iba-1 positive microglia (whole brain, cortex, hippocampus)",[1],significantly reduced compared to the model group
same,"brain Aβ deposition (whole brain, cortex, hippocampus)",[1],significantly less
